Measurements as given in patent publication US5439904A, “2-spiro(2'-spirocycloalkyl)cyclopropyl cephalosporin sulfones as antiinflammatory and antigenerative agents” (Synphar Laboratories, Inc., priority 1993, dated 1995).

Molecular target: T1, HLE (Homo sapiens, UniProt P08246)
T1 construct: Purified elastase from human white blood cells; from tissue; host or cells: human white blood cells (purified enzyme)
T1 sequence (P08246 30-247 limits assumed): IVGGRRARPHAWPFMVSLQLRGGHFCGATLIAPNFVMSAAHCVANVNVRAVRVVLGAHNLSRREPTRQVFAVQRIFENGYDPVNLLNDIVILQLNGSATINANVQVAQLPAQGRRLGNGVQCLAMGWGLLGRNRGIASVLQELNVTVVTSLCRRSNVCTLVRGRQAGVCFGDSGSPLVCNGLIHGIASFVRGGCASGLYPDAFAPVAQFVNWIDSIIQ
Experiment: Enzyme assay for inhibition of HLE (human leukocyte elastase)
Type: biochemical
Settings: purified elastase from human white blood cells, 10 nM; 10 minute preincubation; 0.35 mM MeO-succinyl-L-alanyl-L-alanyl-L-prolyl-L-valine-p-nitroanilide; pH 7.6; 10% dimethylsulfoxide; 410 nm; read-out: IC50 values against HLE
Method: ENZYME ASSAY FOR INHIBITION OF HLE
ENZYME: Purified elastase from human white blood cells.
MeO-succinyl-L-alanyl-L-alanyl-L-prolyl-L-valine-
10 mM phosphate buffer (pH 7.6)
The enzyme activity was determined by monitoring the increase in absorbance at 410 nm caused by the hydrolysis of chromogenic substrates. Inhibition of enzyme by the compounds described were determined after a 10 minute preincubation with the enzyme in the reaction mixture minus substrate. Reaction was initiated by the addition of substrate. The concentration of human leukocyte elastase used for assay was at 10 nM.

Row | SMILES | IC50
1 | CO[C@H]1C(=O)N2C(C(=O)N3CCN(CC(=O)O)CC3)=C(C)C3(CC34CCCCC4)S(=O)(=O)C12 (stereo partly shown) [Compound 9] | 27 nM
2 | CO[C@H]1C(=O)N2C(C(C)=O)=C(C)C3(CC34CCCC4)S(=O)(=O)C12 (stereo partly shown) [Compound 18] | 10.7 nM
3 | CO[C@H]1C(=O)N2C(C(=O)N3CCC(C(=O)O)CC3)=C(C)C3(CC34CCCC4)S(=O)(=O)C12 (stereo partly shown) [Compound 5] | 58.1 nM
4 | CC1=C(C(=O)N2CCC(C(=O)OC(C)(C)C)CC2)N2C(=O)CC2S(=O)(=O)C12CC21CCCC1 (stereo not shown) [Compound 17] | 870 nM
5 | CC1=C(C(=O)OC(c2ccccc2)c2ccccc2)N2C(=O)CC2S(=O)(=O)C12CC21CCCC1 (stereo not shown) [Compound 22, benzhydryl 7,7-dihydro-2-spiro(2'-spirocyclopentyl)-cyclopropyl-3-methyl-3-cephem-4-carboxylate-1,1-dioxide] | 478 nM
6 | CO[C@H]1C(=O)N2C(C(=O)OC(C)(C)C)=C(CSc3ccccn3)C3(CC34CCCC4)S(=O)(=O)C12 (stereo partly shown) [Compound 13] | 9.4 nM
7 | CO[C@H]1C(=O)N2C(C(=O)OC(C)(C)C)=C(CSc3nnc(C)s3)C3(CC34CCCC4)S(=O)(=O)C12 (stereo partly shown) [Compound 15] | 10.3 nM
8 | CO[C@H]1C(=O)N2C(C(=O)OC(C)(C)C)=C(CSc3nc(=O)c(O)nn3C)C3(CC34CCCC4)S(=O)(=O)C12 (stereo partly shown) [Compound 12] | 15 nM
9 | CO[C@H]1C(=O)N2C(C(=O)N3CCN(C)CC3)=C(C)C3(CC34CCCC4)S(=O)(=O)C12 (stereo partly shown) [drawing 6] | 27.3 nM
10 | CO[C@H]1C(=O)N2C(C(=O)N3CCN(CC(=O)O)CC3)=C(C)C3(CC34CCCC4)S(=O)(=O)C12 (stereo partly shown) [Compound 4] | 139 nM
11 | CO[C@H]1C(=O)N2C(C(=O)N3CCC(C(=O)O)CC3)=C(CSc3nc(=O)c(O)nn3C)C3(CC34CCCC4)S(=O)(=O)C12 (stereo partly shown) [Compound 24] | 34 nM
12 | CON=C(C)C1=C(C)C2(CC23CCCC3)S(=O)(=O)C2[C@@H](OC)C(=O)N12 (stereo partly shown) [Compound 19] | 80.7 nM
13 | CO[C@H]1C(=O)N2C(C(=O)OC(C)(C)C)=C(COC(C)=O)C3(CC34CCCC4)S(=O)(=O)C12 (stereo partly drawn) [Compound 11, t-Butyl-7α-methoxy-2-spiro(2'-spirocyclopentyl)cyclopropyl-3-acetoxymethyl-3-cephem-4-carboxylate-1,1-dioxide] | 9.1 nM
14 | CO[C@H]1C(=O)N2C(C(=O)N3CCN(C)CC3)=C(C)C3(CC34CCCCC4)S(=O)(=O)C12 (stereo partly shown) [Compound 10] | 8.4 nM
15 | CO[C@H]1C(=O)N2C(C(=O)N3CCN(CC(=O)OC(C)(C)C)CC3)=C(C)C3(CC34CCCCC4)S(=O)(=O)C12 (stereo partly shown) [Compound 8] | 8.37 nM
16 | CO[C@H]1C(=O)N2C(C(=O)N3CCC(C(N)=O)CC3)=C(C)C3(CC34CCCC4)S(=O)(=O)C12 (stereo partly shown) [Compound 20] | 8.4 nM
17 | COC1C(=O)N2C(C(=O)N(C)CC(=O)O)=C(C)C3(CC34CCCC4)S(=O)(=O)C12 (stereo not shown) [Compound 23] | 75 nM
18 | CO[C@H]1C(=O)N2C(C(=O)N3CCN(C)CC3)=C(C)C3(CC34CCCC4)S(=O)(=O)C12 (stereo partly shown) [Compound 3] | 24.4 nM
19 | CO[C@H]1C(=O)N2C(C(=O)N3CCN(C)CC3)=C(C)C3(CC34CCCCC4)S(=O)(=O)C12 (stereo partly shown) [Compound 7] | 6.4 nM
20 | CO[C@H]1C(=O)N2C(C(=O)OC(C)(C)C)=C(CSc3nnnn3C)C3(CC34CCCC4)S(=O)(=O)C12 (stereo partly shown) [Compound 14] | 15.3 nM
21 | CO[C@H]1C(=O)N2C(C(=O)N3CCCCC3)=C(CSc3nc(=O)c(O)nn3C)C3(CC34CCCC4)S(=O)(=O)C12 (stereo partly shown) [Compound 16] | 32.4 nM
22 | CO[C@H]1C(=O)N2C(C(=O)c3ccccc3)=C(C)C3(CC34CCCC4)S(=O)(=O)C12 (stereo partly shown) [Compound 21] | 3.9 nM
